From patent US11013726B2 (Arbutus Biopharma Corporation, priority 2016, dated 2021) come the findings set out here.

One test has as its system HBsAg. Put plainly: HBsAg assay. In kind it is cell-based, hepatitis B virus. The note with it: Hepatitis B virus, HepG2.2.15, 144 h, read-out: sAg EC50, μM, HepG2.2.15 cells, day 6. The method, then:
Inhibition of HBsAg was determined in HepG2.2.15 cells. Cells were maintained in culture medium containing 10% fetal calf serum, […], Glutamine, penicillin/streptomycin. Cells were seeded in 96-well collagen-coated plate at a density of 30,000 cells/well. Serially diluted compounds were added to cells next day at the final DMSO concentration of 0.5%. Cells were incubated with compounds for 2-3 days, after which medium was removed. Fresh medium containing compounds was added to cells for additional 3-4 days. At day 6 after exposure of compounds, supernatant was collected, the HBsAg immunoassay (microplate-based chemiluminescence immunoassay kits, CLIA, Autobio Diagnosics Co., Zhengzhou, China, Catalog # CL0310-2) was used to determine the level of HBsAg according to manufactory instruction. Dose-response curves were generated and the EC50 value (effective concentrations that achieved 50% inhibitory effect) were determined using XLfit software. In addition, cells were seeded at a density of 5,000 cells/well for determination of cell viability in the presence and absence of compounds by using CellTiter-Glo reagent (Promega). Tables 1-3 show EC50 values obtained by the HBsAg assay for selected compounds.
`COCCOc1cc2c(cc1Cl)-c1cc(=O)c(C(=O)O)cn1[C@@H](C(C)C)CO2` (single isomer, unassigned) [Example 31]: the EC50 (usually the midpoint of the concentration-response curve) amounted to 0.8 µM.
For `COCCCOc1cc2c(nc1Cl)-c1cc(=O)c(C(=O)O)cn1C1(CCCCC1)CO2` [Example 69, 2′-Chloro-3′-(3-methoxypropoxy)-1′-oxo-6′H,11′H-spiro[cyclohexane-1,7′-dipyrido[1,2-d:2′,3′-f][1,4]oxazepine]-10′-carboxylic acid], the EC50 came out at 0.021 µM.
Same read-out and setting: with `COCCCOc1cc2c(nc1C1CC1)-c1cc(=O)c(C(=O)O)cn1[C@H](C(C)(C)C)CO2` [Example 67, (R)-7-(Tert-butyl)-2-cyclopropyl-3-(3-methoxypropoxy)-11-oxo-6,7-dihydro-11H-dipyrido[1,2-d:2′,3′-f][1,4]oxazepine-10-carboxylic acid] the figure was 0.0009 µM; with `COCCCOc1cc2c(nc1OC)-c1cc(=O)c(-c3ncn[nH]3)cn1[C@H](C(C)C)C2` [Example 116, (S)-6-Isopropyl-2-methoxy-3-(3-methoxypropoxy)-9-(1H-1,2,4-triazol-5-yl)-5,6-dihydro-10H-pyrido[1,2-h][1,7]naphthyridin-10-one], 0.009 µM; with `COCCCOc1cc2c(cc1Cl)-c1cc(=O)c(B(O)O)cn1[C@H](C(C)C)CO2` [Example 140, (R)-(2-Chloro-7-isopropyl-3-(3-methoxypropoxy)-11-oxo-6,7-dihydro-11H-benzo[f]pyrido[1,2-d][1,4]oxazepin-10-yl)boronic acid], 2.1 µM.
Same read-out and setting: with `CCOCCOc1cc2c(cc1C)-c1cc(=O)c(C(=O)O)cn1[C@H](C(C)C)CO2` [Example 55, (R)-3-(2-Ethoxyethoxy)-7-isopropyl-2-methyl-11-oxo-6,7-dihydro-11H-benzo[f]pyrido[1,2-d][1,4]oxazepine-10-carboxylic acid] the figure was 0.13 µM; with `CCOCCOc1cc2c(cc1CC)-c1cc(=O)c(C(=O)O)cn1[C@H](C(C)C)CO2` [Example 57, (R)-3-(2-Ethoxyethoxy)-2-ethyl-7-isopropyl-11-oxo-6,7-dihydro-111H-benzo[f]pyrido[1,2-d][1,4]oxazepine-10-carboxylic acid], 0.034 µM.
Take `CC(C)(C)C1Cc2cc3c(cc2-c2cc(=O)c(C(=O)O)cn21)OCC1(COC1)CO3` (stereo not shown) [Example 93, 6′-(Tert-butyl)-2′-oxo-6′,7′-dihydro-2′H,10′H,12′H-spiro[oxetane-3,11′-[1,4]dioxepino[2,3-g]pyrido[2,1-a]isoquinoline]-3′-carboxylic acid]: the EC50 amounted to 0.42 µM.
Same read-out and setting: then `CCc1cc2c(cc1OCC(F)(F)F)OC[C@@H](C(C)C)n1cc(C(=O)O)c(=O)cc1-2` [Example 58, (R)-2-Ethyl-7-isopropyl-11-oxo-3-(2,2,2-trifluoroethoxy)-6,7-dihydro-11H-benzo[f]pyrido[1,2-d][1,4]oxazepine-10-carboxylic acid], with 0.021 µM; and `CCC1(CC)Cc2cc(OCCCOC)c(OC)nc2-c2cc(=O)c(C(=O)O)cn21` [Example 162, 6,6-Diethyl-2-methoxy-3-(3-methoxypropoxy)-10-oxo-5,10-dihydro-6H-pyrido[1,2-h][1,7]naphthyridine-9-carboxylic acid], with 0.014 µM; and `COCCCOc1cc2c(nc1Cl)-c1cc(=O)c(C(=O)O)cn1C1(CCSCC1)CO2` [Example 74, 2-Chloro-3-(3-methoxypropoxy)-11-oxo-2′,3′,5′,6′-tetrahydro-6H,11H-spiro[dipyrido[1,2-d:2′,3′-f][1,4]oxazepine-7,4′-thiopyran]-10-carboxylic acid], with 5 µM.
On the same count and under the same terms, then `COCCCOc1cc2c(cc1Cl)-c1cc(=O)c(-c3ncccn3)cn1[C@H](C(C)C)CO2` [Example 135, (R)-2-Chloro-7-isopropyl-3-(3-methoxypropoxy)-10-(pyrimidin-2-yl)-6,7-dihydro-11H-benzo[f]pyrido[1,2-d][1,4]oxazepin-11-one], with 2 µM; and `COCCCOc1cc2c(cc1Cl)-c1cc(=O)c(C(=O)O)cn1[C@H](CCO)CO2` [Example 43, (R)-2-Chloro-7-(2-hydroxyethyl)-3-(3-methoxypropoxy)-11-oxo-6,7-dihydro-11H-benzo[f]pyrido[1,2-d][1,4]oxazepine-10-carboxylic acid], with 0.35 µM.
Consider `COCCN(C)c1cc2c(cc1Cl)-c1cc(=O)c(C(=O)O)cn1[C@H](C(C)C)CO2` [Example 65, (R)-2-Chloro-7-isopropyl-3-((2-methoxyethyl)(methyl)amino)-11-oxo-6,7-dihydro-11H-benzo[f]pyrido[1,2-d][1,4]oxazepine-10-carboxylic acid], for which the EC50 was found to be 0.27 µM.
Same read-out and setting: then `COCCCOc1cc2c(cc1Cl)-c1cc(=NO)c(C(=O)O)cn1C(C(C)(C)C)C2` (stereo not shown) [Example 145, 6-Tert-butyl-10-chloro-2-(hydroxyimino)-9-(3-methoxypropoxy)-6H,7H-pyrido[2,1-a]isoquinoline-3-carboxylic acid], with 0.15 µM; and `COCCCOc1cc2c(nc1OC)-c1cc(=O)c(C(=O)O)cn1C(C)(C(C)C)C2` (stereo not shown) [Example 155, 6-Isopropyl-2-methoxy-3-(3-methoxypropoxy)-6-methyl-10-oxo-5,10-dihydro-6H-pyrido[1,2-h][1,7]naphthyridine-9-carboxylic acid], with 0.002 µM; and `COCCCOc1cc2c(cc1Cl)-c1cc(=O)c(NS(=O)(=O)CC(F)(F)F)cn1C(C(C)(C)C)C2` (stereo not shown) [Example 127, N-[6-Tert-butyl-10-chloro-9-(3-methoxypropoxy)-2-oxo-6H,7H-pyrido[2,1-a]isoquinolin-3-yl]-2,2,2-trifluoroethanesulfonamide], with 15 µM.
Still for that read-out and setting: then `COCCCOc1cc2c(nc1OC)-c1cc(=O)c(-c3nc(C)no3)cn1[C@H](C(C)C)C2` [Example 111, (S)-6-isopropyl-2-methoxy-3-(3-methoxypropoxy)-9-(3-methyl-1,2,4-oxadiazol-5-yl)-5,6-dihydro-10H-pyrido[1,2-h][1,7]naphthyridin-10-one], with 0.29 µM.
With `COc1cc2c(cn1)-c1cc(=O)c(C(=O)O)cn1C(C(C)C)C2` (stereo not shown) [Example 86, 6-isopropyl-3-methoxy-10-oxo-5,10-dihydro-6H-pyrido[2,1-a][2,7]naphthyridine-9-carboxylic acid], the EC50 was 1 µM.
Consider `CC(C)[C@@H]1COc2cc(OCC(F)(F)F)c(C3CC3)cc2-c2cc(=O)c(C(=O)O)cn21` [Example 54, (R)-2-Cyclopropyl-7-isopropyl-11-oxo-3-(2,2,2-trifluoroethoxy)-6,7-dihydro-11H-benzo[f]pyrido[1,2-d][1,4]oxazepine-10-carboxylic acid], for which the EC50 worked out at 0.012 µM.
The same measure, in the same setting: with `Cc1cc2c(cc1OCC(F)(F)F)OC[C@@H](C(C)C)n1cc(C(=O)O)c(=O)cc1-2` [Example 59, (R)-7-Isopropyl-2-methyl-11-oxo-3-(2,2,2-trifluoroethoxy)-6,7-dihydro-11H-benzo[f]pyrido[1,2-d][1,4]oxazepine-10-carboxylic acid] the figure was 0.089 µM.
Same read-out and setting: then `CC(C)C1Cc2sc(Cl)cc2-c2cc(=O)c(C(=O)O)cn21` (stereo not shown) [Example 85, 2-Chloro-5-isopropyl-9-oxo-4,9-dihydro-5H-thieno[3,2-a]quinolizine-8-carboxylic acid], with 16 µM; and `COCCCOc1cc2c(nc1OC)-c1cc(=O)c(C(=O)O)cn1C1(CCC1)C2` [Example 171, 2′-Methoxy-3′-(3-methoxypropoxy)-10′-oxo-5′,10′-dihydrospiro[cyclobutane-1,6′-pyrido[1,2-h][1,7]naphthyridine]-9′-carboxylic acid], with 0.018 µM.
On the same count and under the same terms, with `COC1COc2cc3c(cc2OC1)-c1cc(=O)c(C(=O)O)cn1C(C(C)(C)C)C3` (stereo not shown) [Example 102, 6-(Tert-butyl)-11-methoxy-2-oxo-6,7,11,12-tetrahydro-2H,10H-[1,4]dioxepino[2,3-g]pyrido[2,1-a]isoquinoline-3-carboxylic acid] the figure was 0.18 µM.
For the compound `COc1cc2c(nc1OC)-c1cc(=O)c(C(=O)O)cn1C(C(C)C)C2` (stereo not shown) [Example 23, 6-Isopropyl-2,3-dimethoxy-10-oxo-5,10-dihydro-6H-pyrido[1,2-h][1,7]naphthyridine-9-carboxylic acid], the EC50 stood at 0.019 µM.

The same test, now with this note: read-out: sAg EC50; HepG2.2.15 cells, day 6.
Take `COCCCOc1cc2c(nc1OC)-c1cc(=O)c(C(=O)O)cn1C(C)(C(C)(C)C)C2` (single isomer, unassigned) [Example 160, 6-(Tert-butyl)-2-methoxy-3-(3-methoxypropoxy)-6-methyl-10-oxo-5,10-dihydro-6H-pyrido[1,2-h][1,7]naphthyridine-9-carboxylic acid]: the EC50 was determined as 0.038 µM.
On the same count and under the same terms, then `COCCCOc1cc2c(nc1OC)-c1cc(=O)c(C(=O)O)cn1C(C)(C(C)(C)C)C2` (single isomer, unassigned) [Example 159, 6-(Tert-butyl)-2-methoxy-3-(3-methoxypropoxy)-6-methyl-10-oxo-5,10-dihydro-6H-pyrido[1,2-h][1,7]naphthyridine-9-carboxylic acid], with 0.0009 µM; and `CC(C)(C)C1Cc2cc3c(cc2-c2cc(=O)c(C(=O)O)cn21)OCC1(COC1)CO3` (single isomer, unassigned) [Example 94, 6′-(Tert-butyl)-2′-oxo-6′,7′-dihydro-2′H,10′H,12′H-spiro[oxetane-3,11′-[1,4]dioxepino[2,3-g]pyrido[2,1-a]isoquinoline]-3′-carboxylic acid], with 2.2 µM.
